Series [1] can be described thus: Inhibition of urease (unknown origin).
Series [2] concerns HeLa. Kind of series: Cytotoxicity against human HeLa cells assessed as reduction in cell viability incubated for 24 hrs by MTT assay. It counts as functional, cell-based.
For series [3], the system named is A549. Briefly: Cytotoxicity against human A549 cells assessed as reduction in cell viability incubated for 24 hrs by MTT assay. The settings on record: A549, 24 h. It counts as functional, cell-based. (Formazan colour is commonly taken as a measure of viable cells.)
Series [4] concerns MCF7. Briefly: Cytotoxicity against human MCF7 cells assessed as reduction in cell viability incubated for 48 hrs by MTT assay. The settings on record: MCF7, 48 h. It counts as functional, cell-based.
Series [5] deals with SARS-CoV-2. Kind of series: Antiviral activity against SARS-CoV-2 infected in African green monkey Vero E6 cells incubated for 48 hrs by plaque reduction assay. In kind it is functional, organism-based. The settings on record: Severe acute respiratory syndrome coronavirus 2, Vero C1008, 48 h. For orientation: In a plaque reduction assay, fewer plaques than in the control indicate reduced infectivity or spread.

For series [6], the target named is NAD-dependent protein deacylase sirtuin-5, mitochondrial (Homo sapiens, UniProt Q9NXA8). Kind of series: Inhibition of SIRT5 (unknown origin).
Series [7] addresses NAD-dependent protein deacetylase sirtuin-3, mitochondrial (Homo sapiens, UniProt Q9NTG7). Briefly: Inhibition of SIRT3 (unknown origin).
Series [8] has as its system MDA-MB-231. Kind of series: Antiproliferative activity against human MDA-MB-231 cells overexpressing PHGDH assessed as reduction in cell growth. It counts as functional, cell-based.
Series [9] in a line: AUClast in mouse at 40 mg/kg, ip. In kind it is ADME, organism-based. The following applies: in vivo.
The nature of series [10]: Half life in mouse. In kind it is ADME, organism-based. The following applies: in vivo.
Series [11] addresses T1, NAD-dependent protein deacetylase sirtuin-2 (Homo sapiens, UniProt Q8IXJ6).
T1 sequence (Q8IXJ6 whole entry): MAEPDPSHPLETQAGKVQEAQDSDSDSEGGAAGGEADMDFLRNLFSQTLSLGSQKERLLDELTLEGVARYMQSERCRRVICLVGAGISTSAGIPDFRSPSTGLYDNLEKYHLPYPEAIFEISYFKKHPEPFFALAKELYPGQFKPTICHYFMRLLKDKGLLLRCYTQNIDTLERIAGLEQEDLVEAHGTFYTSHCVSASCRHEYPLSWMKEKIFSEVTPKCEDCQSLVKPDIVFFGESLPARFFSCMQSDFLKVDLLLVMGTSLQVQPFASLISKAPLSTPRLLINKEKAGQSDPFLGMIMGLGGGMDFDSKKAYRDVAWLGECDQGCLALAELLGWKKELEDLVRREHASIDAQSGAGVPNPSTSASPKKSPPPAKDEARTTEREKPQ
Briefly: Inhibition of C-terminal His-tagged SIRT2 (50 to 356 residues) (unknown origin) using Ac-Glu-Thr-Asp-Lys(Myr)-AMC as substrate by fluorescence based analysis.

Series [12] concerns HepG2. Briefly: Antiproliferative activity against human HepG2 cells. In kind it is functional, cell-based.
Series [13] has as its system MDA-MB-231. Briefly: Antiproliferative activity against human MDA-MB-231 cells. It counts as functional, cell-based.
Series [14] deals with MCF7. Briefly: Antiproliferative activity against human MCF7 cells. It counts as functional, cell-based.
The subject of series [15] is HCT-116. Kind of series: Antiproliferative activity against human HCT-116 cells. In kind it is functional, cell-based.
Series [16] has as its target Epidermal growth factor receptor (Homo sapiens, UniProt P00533). Kind of series: Inhibition of EGFR (unknown origin).
Series [17] concerns PC-3. Kind of series: Cytotoxicity against human PC-3 cells assessed as reduction in cell growth by MTT colorimetric assay. In kind it is functional, cell-based.
For series [18], the system named is HepG2. Kind of series: Cytotoxicity against human HepG2 cells assessed as reduction in cell growth by MTT colorimetric assay. It counts as functional, cell-based.
Series [19] deals with MCF7. Kind of series: Cytotoxicity against human MCF7 cells assessed as reduction in cell growth by MTT colorimetric assay. In kind it is functional, cell-based.
In series [20] the test system is HCT-116. Kind of series: Growth inhibition of human HCT-116 cells by SRB assay. It counts as functional. In general terms: In SRB staining, fixed cells bind dye roughly in proportion to their protein.
The species entered for series [21] is Homo sapiens. Kind of series: Inhibition of NOS (unknown origin) at 15.6 uM relative to control.
The nature of series [22]: Antioxidant activity assessed as DPPH radical scavenging activity. It counts as functional.
For series [23], the system named is Pseudomonas aeruginosa. Kind of series: Antibacterial activity against Pseudomonas aeruginosa ATCC 9027 assessed as reduction in bacterial cell growth incubated for 16 hrs by CLSI-based Mueller-Hinton broth dilution method. It counts as functional.
For series [24], the system named is Staphylococcus aureus. Kind of series: Antibacterial activity against Staphylococcus aureus ATCC 6538 assessed as reduction in bacterial cell growth incubated for 16 hrs by CLSI-based Mueller-Hinton broth dilution method. It counts as functional.
Series [25] concerns Staphylococcus epidermidis. Kind of series: Antibacterial activity against Staphylococcus epidermidis ATCC 12228 assessed as reduction in bacterial cell growth incubated for 16 hrs by CLSI-based Mueller-Hinton broth dilution method. In kind it is functional.
Series [26] addresses Carbonic anhydrase 2 (Homo sapiens, UniProt P00918). Briefly: Inhibition of human carbonic anhydrase II.
Series [27] concerns the target Carbonic anhydrase 1 (Homo sapiens, UniProt P00915). Kind of series: Inhibition of human carbonic anhydrase I.
For series [28], the system named is HCT-116. Kind of series: Cytotoxicity against human HCT-116 cells assessed as reduction in cell growth incubated for 24 hrs by MTT assay. It counts as functional, cell-based. The following applies: HCT-116, 24 h.
Series [29] concerns MCF7. Kind of series: Cytotoxicity against human MCF7 cells assessed as reduction in cell growth incubated for 24 hrs by MTT assay. The following applies: MCF7, 24 h. In kind it is functional, cell-based.
In series [30] the target is NAD-dependent protein deacetylase sirtuin-1 (Homo sapiens, UniProt Q96EB6). Kind of series: Inhibition of SIRT1 (unknown origin).
Series [31] deals with T1, NAD-dependent protein deacetylase sirtuin-2. Kind of series: Inhibition of SIRT2 (unknown origin).
The test system of series [32] is HL-60. Kind of series: Antiproliferative activity against human HL-60 cells overexpressing PHGDH assessed as reduction in cell growth. It counts as functional, cell-based.
Series [33] concerns SiHa. Briefly: Antiproliferative activity against human SiHa cells overexpressing PHGDH assessed as reduction in cell growth. It counts as functional, cell-based.

Molecules are shown by their SMILES. Converted amounts (≈) assume the structure as drawn. Some results are limits rather than exact numbers.

Sequence of Carbonic anhydrase 1 (P00915 whole entry): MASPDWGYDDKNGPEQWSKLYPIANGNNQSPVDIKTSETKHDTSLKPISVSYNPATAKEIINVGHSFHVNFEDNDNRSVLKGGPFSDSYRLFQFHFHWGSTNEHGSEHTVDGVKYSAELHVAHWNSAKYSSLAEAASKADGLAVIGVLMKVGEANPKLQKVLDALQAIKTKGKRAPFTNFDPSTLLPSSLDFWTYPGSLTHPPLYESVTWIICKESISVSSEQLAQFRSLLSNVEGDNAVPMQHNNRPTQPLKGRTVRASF
Sequence of NAD-dependent protein deacylase sirtuin-5, mitochondrial (Q9NXA8 whole entry): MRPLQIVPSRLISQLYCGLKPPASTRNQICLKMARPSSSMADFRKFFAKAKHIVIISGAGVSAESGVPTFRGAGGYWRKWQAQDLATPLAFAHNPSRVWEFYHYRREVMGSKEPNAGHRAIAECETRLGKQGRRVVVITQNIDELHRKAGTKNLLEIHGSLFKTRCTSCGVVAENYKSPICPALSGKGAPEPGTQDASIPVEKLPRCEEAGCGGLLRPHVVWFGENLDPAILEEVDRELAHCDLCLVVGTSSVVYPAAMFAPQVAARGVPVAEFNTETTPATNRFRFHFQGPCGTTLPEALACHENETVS
Sequence of NAD-dependent protein deacetylase sirtuin-3, mitochondrial (Q9NTG7 whole entry): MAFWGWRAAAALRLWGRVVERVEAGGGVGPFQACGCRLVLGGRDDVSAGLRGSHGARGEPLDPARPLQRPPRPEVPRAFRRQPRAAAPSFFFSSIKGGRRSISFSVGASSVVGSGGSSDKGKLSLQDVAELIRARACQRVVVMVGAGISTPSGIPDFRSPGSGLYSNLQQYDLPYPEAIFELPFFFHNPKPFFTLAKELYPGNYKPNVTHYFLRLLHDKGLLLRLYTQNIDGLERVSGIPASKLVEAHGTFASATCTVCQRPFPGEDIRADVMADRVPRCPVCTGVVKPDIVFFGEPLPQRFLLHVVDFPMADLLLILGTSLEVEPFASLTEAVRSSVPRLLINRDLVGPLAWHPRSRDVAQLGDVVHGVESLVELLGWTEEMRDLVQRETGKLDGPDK
Sequence of Epidermal growth factor receptor (P00533 whole entry): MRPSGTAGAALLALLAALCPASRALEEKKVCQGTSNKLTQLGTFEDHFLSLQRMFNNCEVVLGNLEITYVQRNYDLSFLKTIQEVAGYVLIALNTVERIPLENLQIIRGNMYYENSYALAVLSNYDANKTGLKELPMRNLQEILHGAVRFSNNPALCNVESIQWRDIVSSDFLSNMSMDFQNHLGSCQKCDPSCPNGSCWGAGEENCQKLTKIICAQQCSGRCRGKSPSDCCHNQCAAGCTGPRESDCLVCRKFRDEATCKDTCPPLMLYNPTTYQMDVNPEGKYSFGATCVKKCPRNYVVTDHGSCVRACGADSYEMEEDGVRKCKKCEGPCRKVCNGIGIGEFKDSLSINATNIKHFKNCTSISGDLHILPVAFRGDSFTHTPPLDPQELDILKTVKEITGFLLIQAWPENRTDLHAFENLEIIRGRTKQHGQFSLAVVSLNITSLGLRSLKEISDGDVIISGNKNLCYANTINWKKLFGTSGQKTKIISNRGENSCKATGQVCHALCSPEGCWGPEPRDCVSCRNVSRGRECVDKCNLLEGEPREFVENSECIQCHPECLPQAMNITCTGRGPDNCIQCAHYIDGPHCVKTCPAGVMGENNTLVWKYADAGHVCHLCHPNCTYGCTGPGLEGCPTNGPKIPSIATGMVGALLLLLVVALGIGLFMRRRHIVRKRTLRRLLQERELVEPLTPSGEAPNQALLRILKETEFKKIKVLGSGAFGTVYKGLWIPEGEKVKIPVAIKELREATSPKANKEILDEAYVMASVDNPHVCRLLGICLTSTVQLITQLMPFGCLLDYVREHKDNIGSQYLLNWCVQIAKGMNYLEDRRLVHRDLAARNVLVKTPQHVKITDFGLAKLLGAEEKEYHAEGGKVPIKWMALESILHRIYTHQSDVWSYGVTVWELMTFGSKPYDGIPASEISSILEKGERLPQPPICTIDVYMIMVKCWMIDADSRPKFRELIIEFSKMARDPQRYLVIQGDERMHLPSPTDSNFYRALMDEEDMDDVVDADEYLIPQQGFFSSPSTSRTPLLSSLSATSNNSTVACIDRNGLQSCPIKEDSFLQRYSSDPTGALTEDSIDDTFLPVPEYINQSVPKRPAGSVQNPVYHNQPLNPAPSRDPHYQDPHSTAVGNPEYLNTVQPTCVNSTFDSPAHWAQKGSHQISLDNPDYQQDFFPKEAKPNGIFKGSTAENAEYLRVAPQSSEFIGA
Sequence of NAD-dependent protein deacetylase sirtuin-1 (Q96EB6 whole entry): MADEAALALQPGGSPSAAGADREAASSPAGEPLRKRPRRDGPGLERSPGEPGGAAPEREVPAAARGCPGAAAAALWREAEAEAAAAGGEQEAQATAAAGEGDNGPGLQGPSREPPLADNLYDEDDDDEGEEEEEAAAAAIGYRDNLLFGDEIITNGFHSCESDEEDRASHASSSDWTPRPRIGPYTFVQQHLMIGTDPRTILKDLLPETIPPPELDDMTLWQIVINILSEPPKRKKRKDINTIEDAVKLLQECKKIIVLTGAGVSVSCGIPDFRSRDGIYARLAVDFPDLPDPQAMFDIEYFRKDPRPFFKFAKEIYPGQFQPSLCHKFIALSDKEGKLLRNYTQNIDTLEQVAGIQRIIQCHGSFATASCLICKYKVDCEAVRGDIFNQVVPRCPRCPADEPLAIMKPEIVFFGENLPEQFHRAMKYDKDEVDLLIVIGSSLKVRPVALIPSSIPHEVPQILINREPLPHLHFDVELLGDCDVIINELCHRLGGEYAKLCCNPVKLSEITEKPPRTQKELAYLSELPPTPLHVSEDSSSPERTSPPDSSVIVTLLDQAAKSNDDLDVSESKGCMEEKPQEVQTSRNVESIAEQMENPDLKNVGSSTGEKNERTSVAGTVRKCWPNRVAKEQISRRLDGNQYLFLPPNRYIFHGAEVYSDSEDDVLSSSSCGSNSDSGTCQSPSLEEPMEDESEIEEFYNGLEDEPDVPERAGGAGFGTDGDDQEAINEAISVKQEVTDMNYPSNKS

In the case of `O=C(O)c1cn(C2CC2)c2cc(N3CCN(C(=S)c4cccc([N+](=O)[O-])c4)CC3)c(F)cc2c1=O`, the IC50 – broadly, the concentration that inhibits the measured activity by half – in [1] is 5.87 µM.

Regarding `CN(C)c1ccc(C2CC(c3ccc(Cl)cc3)=NN2C(N)=S)cc1` (configuration not stated), the results for the IC50 in series [2] and in [3] were 17.5 µM and 13.5 µM, respectively.

For `NC(=O)N1N=C(c2ccccc2)CC1/C=C/c1ccccc1` (configuration not stated), the IC50 in series [4] was 19.1 µM.

In series [1], `Cc1cccc(C)c1NC(=S)N1CCc2ccccc2C1` came in with an IC50 of 11.2 µM.

Take `CC(C)(C)[C@H](NC(=O)C(F)(F)F)C(=O)N1C[C@H]2[C@@H]([C@H]1C(=O)N[C@H](C#N)C[C@H]1CCNC1=O)C2(C)C`: the EC50 (usually the concentration needed to bring the measured effect to its halfway point) in [5] came to 0.94 µM.

Take `CCCCCCCCCCCCCC(=S)NCCCCC(NC(=O)OCc1ccccc1)C(=O)Nc1ccccc1` (configuration not stated): the IC50 in series [6] and in [7] was over 200 µM throughout.

Consider `Cc1cc(C)nc(NC(=S)N2CCN(Cc3ccc(C(F)(F)F)cc3)CC2)c1`, for which the IC50 in series [8] was determined as 8 µM. In [9], this molecule gave an AUClast of 147 µg·h/mL.

Turning to `CCCCCCCCCCCCCC(=S)NCCCC[C@H](NS(C)(=O)=O)C(=O)N[C@H](C)C(=O)NCCCCNC(=N)N`, the half-life (usually how long it takes for the measured level to halve) in [10] was over 2 h. In addition, half-maximal inhibition in [11] (IC50) was put at 0.09 µM.

With `COc1ccc(C2=NN(C(N)=S)C(c3ccc(Cl)cc3)C2)cc1` (configuration not stated), the IC50 turned out to be 6.08 µM in series [12], 8.5 µM in series [13], 9.37 µM in series [14] and 5.89 µM in [15].

Turning to `COc1ccc(C2=NN(C(N)=S)C(/C=C/c3ccccc3)C2)cc1` (configuration not stated), the IC50 in series [4] was determined as 22.4 µM.

Turning to `NC(=S)N1N=C(c2ccccc2)CC1/C=C/c1ccccc1` (configuration not stated), the results for the 50% inhibitory concentration (IC50) in series [4] and in [16] were 4.53 µM and 0.34 µM, respectively.

In [5], `COc1ccc(F)c2[nH]c(C(=O)N[C@@H](CC(C)C)C(=S)N[C@@H](C[C@@H]3CCNC3=O)C(=O)c3nc4c(F)cccc4s3)cc12` registered an EC50 of 0.34 µM.

Regarding `NC(=O)N1N=C(c2ccc(Cl)cc2)CC1/C=C/c1ccccc1` (configuration not stated), the IC50 in series [4] is 15.1 µM.

For `O=C(O)c1cn(C2CC2)c2cc(N3CCN(C(=S)c4ccc([N+](=O)[O-])cc4)CC3)c(F)cc2c1=O`, half-maximal inhibition in series [1] (IC50) was put at 2.05 µM.

As for `COc1ccc2ccc3c(c2c1)C(c1c(F)cccc1F)C(C(N)=S)=C(N)O3` (configuration not stated), the IC50 is 1.1 µM in series [17], 4.5 µM in series [18] and 5.4 µM in series [19].

With `COc1cc(C2CC(c3ccccc3)=NN2C(N)=S)cc(OC)c1OC` (configuration not stated), in series [20], halving of growth (GI50) required 0.15 µM.

On to `O=[N+]([O-])c1ccc(N2CCN(C(=S)NCc3nc4ccccc4s3)CC2)cc1`, for which, in series [21], the inhibition (in general, the percentage by which the read-out fell short of the control) stood at 67%.

Consider `NC(=S)N1N=C(c2ccc(Cl)cc2)CC1/C=C/c1ccccc1` (configuration not stated), for which the IC50 in [4] is 7.18 µM.

With `COc1ccc(NC(=S)N2CCc3ccccc3C2)cc1`, in [1], half-maximal inhibition (IC50) was put at 11.2 µM.

`CN(C)c1ccc(C2CC(c3cccs3)=NN2C(N)=S)cc1` (configuration not stated): the IC50 in series [22] stood at 632 ng/mL (≈ 1910 nM).

For `O=C(O)c1cn(C2CC2)c2cc(N3CCN(C(=S)c4cccc(F)c4)CC3)c(F)cc2c1=O`, the MIC50 in [23], in series [24] and in [25] was under 3 ng/mL throughout. In addition, the IC50 in [1] amounted to 4.08 µM.

With `COc1ccc(-c2cc(-c3ccc(N)cc3)nn2C(N)=S)cc1OC`, the IC50 came out at 0.0205 µM in series [26] and 0.00513 µM in series [27].

`COc1cc(-c2cc(-c3ccc(N)cc3)nn2C(N)=S)cc(OC)c1OC` returned a 50% inhibitory concentration (IC50) in [27] of 0.0122 µM.

`Cc1cc(C)c2c(n1)nn1c(C)c(C(=S)Nc3ccccc3)nnc21`: the IC50 in [28] came to 12.6 µM; in [29] it was 11.7 µM.

For `COc1ccc(C2=NN(C(N)=O)C(/C=C/c3ccccc3)C2)cc1` (configuration not stated), the IC50 in series [4] was 37.7 µM.

Consider `CCCCCCCCCCCCCC(=O)NCCCCC(NC(=O)OCc1ccccc1)C(=O)Nc1ccccc1` (configuration not stated), for which the IC50 in series [30], in series [6], in series [7] and in [31] was over 200 µM in each case.

On to `COc1cccc2[nH]c(C(=O)N[C@@H](CC(C)C)C(=O)N[C@@H](C[C@@H]3CCNC3=O)C(=O)c3nc4ccccc4s3)cc12`, for which, in series [5], the EC50 was found to be 0.29 µM.

Consider `COc1ccc(F)c2[nH]c(C(=O)N[C@@H](CC(C)C)C(=O)N[C@@H](C[C@@H]3CCNC3=O)C(=O)c3nc4c(F)cccc4s3)cc12`, for which the EC50 in series [5] was determined as 0.29 µM.

For `FC(F)(F)c1ccc(NC(=S)N2CCc3ccccc3C2)cc1`, the IC50 in series [1] came to 11.2 µM.

`CCCCCCCCCCCCNC(=S)NCCCC[C@H](NS(C)(=O)=O)C(=O)N[C@H](C)C(=O)NCCCCNC(=N)N` showed a half-life in series [10] of under 2 h. The same molecule yielded an IC50 in series [11] of 0.1 µM.

For the molecule `O=C(C(=S)N1CCOCC1)c1ccc(Cl)cc1`, the IC50 in series [8] is over 100 µM; in series [32] it was 15.5 µM; in series [33], 6.6 µM.

Source of the values: ChEMBL document CHEMBL5614393, “Thioamides in medicinal chemistry and as small molecule therapeutic agents” (Eur J Med Chem, 2024).
